# According to patent US6355799B1, “Substituted benzene compounds, process for their preparation, and herbicidal and defoliant compositions containing them” (ISK Americas Incorporated, priority 1997, dated 2002):
# Key:
# Format in all cases: in vivo
# [1] = system: redroot pigweed (Amaranthus retroflexus, AMARE); assay: Pre-emerge test, greenhouse herbicide activity screening; conditions: pre-emerge; for Pre-emerge Herbicidal Activity AMARE: phytotoxicity rating 0-100 at 14 days after application; for phytotoxicity rating AMARE: 14 days after application, scale 0-100
# How it was run: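 Sandy loam pots; pre-emerge: sown 1 d pre-spray, surface-watered after, then bottom-watered. Post-emerge: sown 8–21 d before, 2–3 leaf stage, + 0.25% v/v NIS, bottom-watered. Acetone, 187 l/ha track spray, 15–1000 g ai/ha. 0–100 injury score, day 14.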
# [2] = system: upland rice (Oryza sp., var. Tebonnet, RICE); assay: Pre-emerge test, crop safety; conditions: pre-emerge; for Pre-emerge Herbicidal Activity RICE: crop damage, phytotoxicity rating 0-100 at 14 days after application; for phytotoxicity rating RICE (crop damage): 14 days after application, scale 0-100
# How it was run: (§1)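 Fourteen days after spraying, crop and weed injury was graded visually from 0, no effect, to 100, every plant dead. Test substances were dissolved in acetone and applied at 15–1000 g ai/ha with a flat-fan nozzle. Application was either pre-emergence, one day after sowing, or post-emergence at the 2–3 leaf stage.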
# [3] = system: field corn (Zea mays L., var. Dekalb 535, CORN); assay: Pre-emerge test, crop safety; conditions: pre-emerge; for Pre-emerge Herbicidal Activity CORN: crop damage, phytotoxicity rating 0-100 at 14 days after application; for phytotoxicity rating CORN (crop damage): 14 days after application, scale 0-100
# How it was run: as §1
# [4] = system: upland rice (Oryza sp., var. Tebonnet, RICE); assay: Post-emerge test, crop safety; conditions: post-emerge; for Post-emerge Herbicidal Activity RICE: crop damage rating 0-100 at 14 days after application; for RICE phytotoxicity rating (crop damage): 14 days after application, rating scale 0-100
# How it was run: (§2)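 Compounds in acetone were track-sprayed at 15-1000 g ai/ha (187 l/ha) on sandy loam pots: pre-emerge one day after seeding, post-emerge at 2-3 leaf stage with 0.25% v/v non-ionic surfactant. Phytotoxicity was rated 14 days later on a 0 (no damage) to 100 (complete death) scale.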
# [5] = system: field corn (Zea mays L., var. Dekalb 535, CORN); assay: Post-emerge test, crop safety; conditions: post-emerge; for Post-emerge Herbicidal Activity CORN: crop damage rating 0-100 at 14 days after application; for CORN phytotoxicity rating (crop damage): 14 days after application, rating scale 0-100
# How it was run: as §2
# [6] = system: ivyleaf morningglory (Ipomoea hederacea, IPOHE); assay: Post-emerge test, greenhouse herbicide activity screening; conditions: post-emerge; for Post-emerge Herbicidal Activity IPOHE: phytotoxicity rating 0-100 at 14 days after application; for IPOHE phytotoxicity rating: 14 days after application, rating scale 0-100
# How it was run: (§3)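 Compounds in acetone were track-sprayed at 15–1000 g ai/ha: pre-emergence onto soil sown the previous day, then top-watered to incorporate and later bottom-watered; post-emergence onto 2–3 leaf plants with 0.25% v/v surfactant, bottom-watered only. Ratings on a 0–100 phytotoxicity scale were taken at day 14.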
# [7] = system: johnsongrass (Sorghum halepense, SORHA); assay: as above; conditions: post-emerge; for Post-emerge Herbicidal Activity SORHA: phytotoxicity rating 0-100 at 14 days after application; for SORHA phytotoxicity rating: 14 days after application, rating scale 0-100
# How it was run: as §3
# [8] = system: barnyardgrass (Echinochloa crus-galli, ECHCG); assay: as above; conditions: post-emerge; for Post-emerge Herbicidal Activity ECHCG: phytotoxicity rating 0-100 at 14 days after application; for ECHCG phytotoxicity rating: 14 days after application, rating scale 0-100
# How it was run: as §3
# [9] = system: green foxtail (Setaria viridis, SETVI); assay: as above; conditions: post-emerge; for Post-emerge Herbicidal Activity SETVI: phytotoxicity rating 0-100 at 14 days after application; for SETVI phytotoxicity rating: 14 days after application, rating scale 0-100
# How it was run: as §3
# [10] = system: lambsquarters (Chenopodium album, CHEAL); assay: as above; conditions: post-emerge; for Post-emerge Herbicidal Activity CHEAL: phytotoxicity rating 0-100 at 14 days after application; for CHEAL phytotoxicity rating: 14 days after application, rating scale 0-100
# How it was run: as §3
# [11] = system: large crabgrass (Digitaria sanguinalis, DIGSA); assay: as above; conditions: post-emerge; for Post-emerge Herbicidal Activity DIGSA: phytotoxicity rating 0-100 at 14 days after application; for DIGSA phytotoxicity rating: 14 days after application, rating scale 0-100
# How it was run: as §3
# [12] = system: velvetleaf (Abutilon theophrasti, ABUTH); assay: as above; conditions: post-emerge; for Post-emerge Herbicidal Activity ABUTH: phytotoxicity rating 0-100 at 14 days after application; for ABUTH phytotoxicity rating: 14 days after application, rating scale 0-100
# How it was run: as §3
# [13] = system: sicklepod (Cassia obtusifolia, CASOB); assay: as above; conditions: post-emerge; for Post-emerge Herbicidal Activity CASOB: phytotoxicity rating 0-100 at 14 days after application; for CASOB phytotoxicity rating: 14 days after application, rating scale 0-100
# How it was run: as §3
# [14] = system: redroot pigweed (Amaranthus retroflexus, AMARE); assay: as above; conditions: post-emerge; for Post-emerge Herbicidal Activity AMARE: phytotoxicity rating 0-100 at 14 days after application; for AMARE phytotoxicity rating: 14 days after application, rating scale 0-100
# How it was run: as §3
# [15] = system: ivyleaf morningglory (Ipomoea hederacea, IPOHE); assay: Pre-emerge test, greenhouse herbicide activity screening; conditions: pre-emerge; for Pre-emerge Herbicidal Activity IPOHE: phytotoxicity rating 0-100 at 14 days after application; for phytotoxicity rating IPOHE: 14 days after application, scale 0-100
# How it was run: as §2
# [16] = system: barnyardgrass (Echinochloa crus-galli, ECHCG); assay: as above; conditions: pre-emerge; for Pre-emerge Herbicidal Activity ECHCG: phytotoxicity rating 0-100 at 14 days after application; for phytotoxicity rating ECHCG: 14 days after application, scale 0-100
# How it was run: as §2
# [17] = system: green foxtail (Setaria viridis, SETVI); assay: as above; conditions: pre-emerge; for Pre-emerge Herbicidal Activity SETVI: phytotoxicity rating 0-100 at 14 days after application; for phytotoxicity rating SETVI: 14 days after application, scale 0-100
# How it was run: as §2
# [18] = system: lambsquarters (Chenopodium album, CHEAL); assay: as above; conditions: pre-emerge; for Pre-emerge Herbicidal Activity CHEAL: phytotoxicity rating 0-100 at 14 days after application; for phytotoxicity rating CHEAL: 14 days after application, scale 0-100
# How it was run: as §2
# [19] = system: large crabgrass (Digitaria sanguinalis, DIGSA); assay: as above; conditions: pre-emerge; for Pre-emerge Herbicidal Activity DIGSA: phytotoxicity rating 0-100 at 14 days after application; for phytotoxicity rating DIGSA: 14 days after application, scale 0-100
# How it was run: as §2
# [20] = system: velvetleaf (Abutilon theophrasti, ABUTH); assay: as above; conditions: pre-emerge; for Pre-emerge Herbicidal Activity ABUTH: phytotoxicity rating 0-100 at 14 days after application; for phytotoxicity rating ABUTH: 14 days after application, scale 0-100
# How it was run: as §2
# [21] = system: sicklepod (Cassia obtusifolia, CASOB); assay: as above; conditions: pre-emerge; for Pre-emerge Herbicidal Activity CASOB: phytotoxicity rating 0-100 at 14 days after application; for phytotoxicity rating CASOB: 14 days after application, scale 0-100
# How it was run: as §2
smiles,measurement,setting,value
Cc1c(Cl)cc(F)c(-n2c(=O)cc(C(F)(F)F)n(C)c2=O)c1NC(=O)SCc1ccccc1 [4-66],Pre-emerge Herbicidal Activity AMARE,[1]; rate 63 g ai/ha,100
same,Pre-emerge Herbicidal Activity AMARE,[1]; rate 250 g ai/ha,100
same,Pre-emerge Herbicidal Activity RICE,[2]; rate 63 g ai/ha,20
same,Pre-emerge Herbicidal Activity RICE,[2]; rate 250 g ai/ha,65
same,Pre-emerge Herbicidal Activity CORN,[3]; rate 63 g ai/ha,0
same,Pre-emerge Herbicidal Activity CORN,[3]; rate 250 g ai/ha,50
same,Post-emerge Herbicidal Activity RICE,[4]; 63 g ai/ha,30
same,Post-emerge Herbicidal Activity RICE,[4]; 250 g ai/ha,70
same,Post-emerge Herbicidal Activity CORN,[5]; 63 g ai/ha,15
same,Post-emerge Herbicidal Activity CORN,[5]; 250 g ai/ha,60
same,Post-emerge Herbicidal Activity IPOHE,[6]; 63 g ai/ha,100
same,Post-emerge Herbicidal Activity IPOHE,[6]; 250 g ai/ha,100
same,Post-emerge Herbicidal Activity SORHA,[7]; 63 g ai/ha,0
same,Post-emerge Herbicidal Activity SORHA,[7]; 250 g ai/ha,50
same,Post-emerge Herbicidal Activity ECHCG,[8]; 63 g ai/ha,0
same,Post-emerge Herbicidal Activity ECHCG,[8]; 250 g ai/ha,40
same,Post-emerge Herbicidal Activity SETVI,[9]; 63 g ai/ha,10
same,Post-emerge Herbicidal Activity SETVI,[9]; 250 g ai/ha,60
same,Post-emerge Herbicidal Activity CHEAL,[10]; 63 g ai/ha,80
same,Post-emerge Herbicidal Activity CHEAL,[10]; 250 g ai/ha,100
same,Post-emerge Herbicidal Activity DIGSA,[11]; 63 g ai/ha,10
same,Post-emerge Herbicidal Activity DIGSA,[11]; 250 g ai/ha,50
same,Post-emerge Herbicidal Activity ABUTH,[12]; 63 g ai/ha,100
same,Post-emerge Herbicidal Activity ABUTH,[12]; 250 g ai/ha,100
same,Post-emerge Herbicidal Activity CASOB,[13]; 63 g ai/ha,20
same,Post-emerge Herbicidal Activity CASOB,[13]; 250 g ai/ha,90
same,Post-emerge Herbicidal Activity AMARE,[14]; 63 g ai/ha,80
same,Post-emerge Herbicidal Activity AMARE,[14]; 250 g ai/ha,100
same,Pre-emerge Herbicidal Activity IPOHE,[15]; rate 63 g ai/ha,60
same,Pre-emerge Herbicidal Activity IPOHE,[15]; rate 250 g ai/ha,90
same,Pre-emerge Herbicidal Activity ECHCG,[16]; rate 63 g ai/ha,30
same,Pre-emerge Herbicidal Activity ECHCG,[16]; rate 250 g ai/ha,90
same,Pre-emerge Herbicidal Activity SETVI,[17]; rate 63 g ai/ha,70
same,Pre-emerge Herbicidal Activity SETVI,[17]; rate 250 g ai/ha,100
same,Pre-emerge Herbicidal Activity CHEAL,[18]; rate 63 g ai/ha,100
same,Pre-emerge Herbicidal Activity CHEAL,[18]; rate 250 g ai/ha,100
same,Pre-emerge Herbicidal Activity DIGSA,[19]; rate 63 g ai/ha,80
same,Pre-emerge Herbicidal Activity DIGSA,[19]; rate 250 g ai/ha,100
same,Pre-emerge Herbicidal Activity ABUTH,[20]; rate 63 g ai/ha,100
same,Pre-emerge Herbicidal Activity ABUTH,[20]; rate 250 g ai/ha,100
same,Pre-emerge Herbicidal Activity CASOB,[21]; rate 63 g ai/ha,30
same,Pre-emerge Herbicidal Activity CASOB,[21]; rate 250 g ai/ha,70
COc1c(Cl)cc(F)c(-n2c(=O)cc(C(F)(F)F)n(C)c2=O)c1NC(=O)C=Cc1ccccc1[N+](=O)[O-] [2-126],phytotoxicity rating AMARE,[1]; 63 g ai/ha,100
same,phytotoxicity rating AMARE,[1]; 250 g ai/ha,100
same,phytotoxicity rating RICE (crop damage),[2]; 63 g ai/ha,10
same,phytotoxicity rating RICE (crop damage),[2]; 250 g ai/ha,60
same,phytotoxicity rating CORN (crop damage),[3]; 63 g ai/ha,0
same,phytotoxicity rating CORN (crop damage),[3]; 250 g ai/ha,5
same,RICE phytotoxicity rating (crop damage),[4]; 63 g ai/ha,0
same,RICE phytotoxicity rating (crop damage),[4]; 250 g ai/ha,50
same,CORN phytotoxicity rating (crop damage),[5]; 63 g ai/ha,10
same,CORN phytotoxicity rating (crop damage),[5]; 250 g ai/ha,10
same,IPOHE phytotoxicity rating,[6]; 63 g ai/ha,80
same,IPOHE phytotoxicity rating,[6]; 250 g ai/ha,100
same,SORHA phytotoxicity rating,[7]; 63 g ai/ha,0
same,SORHA phytotoxicity rating,[7]; 250 g ai/ha,10
same,ECHCG phytotoxicity rating,[8]; 63 g ai/ha,0
same,ECHCG phytotoxicity rating,[8]; 250 g ai/ha,10
same,SETVI phytotoxicity rating,[9]; 63 g ai/ha,30
same,SETVI phytotoxicity rating,[9]; 250 g ai/ha,40
same,CHEAL phytotoxicity rating,[10]; 63 g ai/ha,80
same,CHEAL phytotoxicity rating,[10]; 250 g ai/ha,95
same,DIGSA phytotoxicity rating,[11]; 63 g ai/ha,20
same,DIGSA phytotoxicity rating,[11]; 250 g ai/ha,30
same,ABUTH phytotoxicity rating,[12]; 63 g ai/ha,90
same,ABUTH phytotoxicity rating,[12]; 250 g ai/ha,100
same,CASOB phytotoxicity rating,[13]; 63 g ai/ha,60
same,CASOB phytotoxicity rating,[13]; 250 g ai/ha,60
same,AMARE phytotoxicity rating,[14]; 63 g ai/ha,80
same,AMARE phytotoxicity rating,[14]; 250 g ai/ha,100
same,phytotoxicity rating IPOHE,[15]; 63 g ai/ha,10
same,phytotoxicity rating IPOHE,[15]; 250 g ai/ha,90
same,phytotoxicity rating ECHCG,[16]; 63 g ai/ha,10
same,phytotoxicity rating ECHCG,[16]; 250 g ai/ha,40
same,phytotoxicity rating SETVI,[17]; 63 g ai/ha,40
same,phytotoxicity rating SETVI,[17]; 250 g ai/ha,100
same,phytotoxicity rating CHEAL,[18]; 63 g ai/ha,100
same,phytotoxicity rating CHEAL,[18]; 250 g ai/ha,100
same,phytotoxicity rating DIGSA,[19]; 63 g ai/ha,30
same,phytotoxicity rating DIGSA,[19]; 250 g ai/ha,90
same,phytotoxicity rating ABUTH,[20]; 63 g ai/ha,100
same,phytotoxicity rating ABUTH,[20]; 250 g ai/ha,100
same,phytotoxicity rating CASOB,[21]; 63 g ai/ha,10
same,phytotoxicity rating CASOB,[21]; 250 g ai/ha,70
